Patent publication US20220054477A1, “INDUCTION OF SUSTAINED LOCAL INFLAMMATION” (Ascendis Pharma Oncology Division A/S, priority 2019, published 2022)
Marks after values point to notes of the source that are not given here.

How the values were obtained:
Il1a = test: PBMC gene expression (qPCR, 6 hours post-treatment): Il1a (Example 17); type: in vivo, BALB/C mice
Protocol: (§1) Hydrogels were administered as suspensions in PTP buffer. […] Tumors were excised, weighed and snap frozen.
(§2) For PBMC isolations, approximately 600 μl of whole blood was collected via cardiac puncture. The collected whole blood from each individual mouse was diluted with a 1:1 ratio of pre-warmed PBS supplemented with 2% Fetal Bovine Serum (FBS). Then an equal volume of Histopaque-1083 was added to a new sterile 15 mL conical tube, where the diluted whole blood was layered over the Histopaque-1083. The mixture was then centrifuged at 400 g for 30 minutes. […]
(§3) Lysates from untreated control samples and 6 hour treated samples were thawed and RNA was isolated using the RNeasy Mini Kit (QIAGEN) following manufacturer's recommendations. […] RNA concentrations were measured using a NanoDrop (ThermoFisher) and then adjusted to […] with RNase-free water. RNA quality was assessed using a NanoDrop (ThermoFisher). […] 200 ng of cDNA was used for quantitative PCR using the RT^2 SYBR Green ROX qPCR Master mix (2×) kit (QIAGEN) following manufacturer's recommendations. […]
(§4) Cycle thresholds (CT) were collected using a 384-well platform ABI-7900H real-time qPCR system (Applied Biosystems). […] 2^ΔΔCT values were calculated with the following formula: […]
(§5) For each gene, 3 technical replicates were analyzed per biological replicate. Undetermined technical replicate CT values were recorded as zero ΔCT values. […]

Cxcl2 = test: PBMC gene expression (qPCR, 6 hours post-treatment): Cxcl2 (Example 17); type: in vivo, BALB/C mice
Protocol: as §1, §2, §3, §4, §5

Ccl2 = test: PBMC gene expression (qPCR, 6 hours post-treatment): Ccl2 (Example 17); type: in vivo, BALB/C mice
Protocol: as §1, §2, §3, §4, §5

Cxcl10 = test: PBMC gene expression (qPCR, 6 hours post-treatment): Cxcl10 (Example 17); type: in vivo, BALB/C mice
Protocol: as §1, §2, §3, §4, §5

Ccl3 = test: PBMC gene expression (qPCR, 6 hours post-treatment): Ccl3 (Example 17); type: in vivo, BALB/C mice
Protocol: as §1, §2, §3, §4, §5

[1] = tested on: Ly-6C+ antigen presenting cells; test: Flow cytometry of tumor draining lymph nodes: frequency of Ly-6C+ antigen presenting cells of non-T cells (Example 15); type: in vivo, BALB/C mice; conditions: 7 days after randomization
Protocol: (§6) Hydrogels were administered as suspension in PTP buffer. Some cohorts were further treated with 20 μg human IL-2 (Peprotech, Rocky Hill, N.J.), intraperitoneally (I.P.), twice a day for 5 days. Mice were sacrificed 7 days after randomization (D0). Following sacrifice, tumor draining lymph nodes were isolated from both flanks and were dissociated mechanically to generate a single cell suspension at a cell concentration of 1×10^6 cells per sample. Cell suspensions were centrifuged at 300 g for 5 minutes. Supernatants were discarded and cells were resuspended in FACS buffer with 1 μg/ml Fc-Block and incubated at 4° C. for 10 minutes in the dark. Surface marker antibody mixtures (antibody concentration: 10 μg/mL) in FACS buffer were added to each sample and samples were incubated in the dark at 4° C. for 30 minutes. Cells were centrifuged at 300 g for 5 minutes and supernatants were discarded. Cells were washed and then resuspended with FACS buffer before cytometer collection.
(§7) After collection, FACS data was analyzed using FlowJo Version 10.6.1. Compensation was digitally adjusted using single antibody-stained beads. Samples with less than 90% viability, as determined by LiveDead cell staining, were excluded from the analysis. […]

TNFα = test: In vivo cytokine induction, plasma cytokine levels: TNFα (Example 12); parameters: species or system BALB/C mice; conditions: single intratumoral dose
Protocol: (§8) Mice were subcutaneously implanted with 3×10^5 CT26 tumor cells in the left and right flanks. […] Hydrogels were administered as suspensions in PBST buffer. K2 EDTA-preserved blood samples were collected by retro-orbital bleed at various time points following drug administration and plasma was isolated following centrifugation at 2000×g for 5 minutes at 4° C. and frozen. Plasma samples were stored at −80° C. Plasma was thawed and undiluted samples were assessed for cytokine levels using the 36-Plex Mouse ProcartaPlex™ Cytokine Panel 1A (ThermoFisher Scientific) following manufacturer's recommendations. Cytokines were measured on the Bio-Plex 200 (BioRad) following kit instructions. For sample values below or at the lower limit of quantitation (LLOQ) of the assay, a value of 0.01 pg/mL was instead used in determining mean cytokine concentrations.

[2] = tested on: Ly-6C+ MHCII+ antigen presenting cells; test: Flow cytometry of tumor draining lymph nodes: frequency of IA-IE (MHCII)+ antigen presenting cells of Ly-6C+ antigen presenting cells (Example 15); type: in vivo, BALB/C mice; conditions: 7 days after randomization
Protocol: as §6, §7

Ccl4 = test: PBMC gene expression (qPCR, 6 hours post-treatment): Ccl4 (Example 17); type: in vivo, BALB/C mice
Protocol: as §1, §2, §3, §4, §5

Ifna4 = test: PBMC gene expression (qPCR, 6 hours post-treatment): Ifna4 (Example 17); type: in vivo, BALB/C mice
Protocol: as §1, §2, §3, §4, §5

[3] = parameters: species or system WISTAR rats; conditions: rat, in vivo, sc, 25 ug
From the text: Hydrogels were suspended (ca. 6% wt/v) PBST buffer at pH 7.4. […] Blood samples were withdrawn and used for plasma generation over the course of 28 d. […] Plasma concentration profiles were generated and analyzed with Phoenix WinNonlin software (Certara, Princeton, N.J., USA).

CD8+ T cells = test: Flow cytometry of tumor draining lymph nodes: frequency of CD8+ T cells of CD3+ T cells (Example 15); type: in vivo, BALB/C mice; conditions: 7 days after randomization
Protocol: as §6, §7

IFNγ = test: In vivo cytokine induction, plasma cytokine levels: IFNγ (Example 12); parameters: species or system BALB/C mice; conditions: single intratumoral dose, values at or below LLOQ set to 0.01
Protocol: as §8

Il1b = test: PBMC gene expression (qPCR, 6 hours post-treatment): Il1b (Example 17); type: in vivo, BALB/C mice
Protocol: as §1, §2, §3, §4, §5

Cxcl1 = test: PBMC gene expression (qPCR, 6 hours post-treatment): Cxcl1 (Example 17); type: in vivo, BALB/C mice
Protocol: as §1, §2, §3, §4, §5

Il10 = test: PBMC gene expression (qPCR, 6 hours post-treatment): Il10 (Example 17); type: in vivo, BALB/C mice
Protocol: as §1, §2, §3, §4, §5

CCL2/MCP-1 = test: In vivo cytokine induction, plasma cytokine levels: CCL2/MCP-1 (Example 12); parameters: species or system BALB/C mice; conditions: single intratumoral dose
Protocol: as §8

Ly-6C+ CD8+ T cells = test: Flow cytometry of tumor draining lymph nodes: frequency of Ly-6C+ T cells of CD8+ T cells (Example 15); type: in vivo, BALB/C mice; conditions: 7 days after randomization
Protocol: as §6, §7

Tnf = test: PBMC gene expression (qPCR, 6 hours post-treatment): Tnf (Example 17); type: in vivo, BALB/C mice
Protocol: as §1, §2, §3, §4, §5

CT26 tumor cells = test: In vivo anti-tumor efficacy, CT26 tumor volumes (Example 11); parameters: species or system BALB/C mice; conditions: single intratumoral dose
Protocol: Mice were subcutaneously implanted with 3×10^5 CT26 tumor cells in the left and right flanks. […] Hydrogels were administered as suspensions in PBST buffer. Following treatment initiation, anti-tumor efficacy was assessed by determination of tumor volumes at various time points from tumor size measurements with a caliper. Tumor volumes were calculated according to the formula: […]
where L is the length of the tumor and W the width (both in mm). Mice were removed from the study once tumors were greater than 1500 mm^3.

CD4+ T cells = test: Flow cytometry of tumor draining lymph nodes: frequency of CD4+ T cells of CD3+ T cells (Example 15); type: in vivo, BALB/C mice; conditions: 7 days after randomization
Protocol: as §6, §7

IL-6 = test: In vivo cytokine induction, plasma cytokine levels: IL-6 (Example 12); parameters: species or system BALB/C mice; conditions: single intratumoral dose
Protocol: as §8

With Resiquimod [Compound 4] the “Il1a Mean (2^ΔΔCT)” value (Il1a) was 0.41, the “Il1a Fold change (4/13i)” value (Il1a; ratio of 4 to 13i) was 1.78 and the “Cxcl2 Mean (2^ΔΔCT)” value (Cxcl2) was 35.37. For the same substance, the “Cxcl2 Fold change (4/13i)” value (Cxcl2; ratio of 4 to 13i) was 6.43, the “Ccl2 Mean (2^ΔΔCT)” value (Ccl2) was 6.75 and the “Ccl2 Fold change (4/13i)” value (Ccl2; ratio of 4 to 13i) was 2.82. The “Cxl10 Mean (2^ΔΔCT)” value (Cxcl10) was 45.38, the “Cxl10 Fold change (4/13i)” value (Cxcl10; ratio of 4 to 13i) was 21.41 and the “Ccl3 Mean (2^ΔΔCT)” value (Ccl3) was 1.43†. For the same substance, the “Ccl3 Fold change (4/13i)” value (Ccl3; ratio of 4 to 13i) was 1.64, the “Frequency of Ly-6C+ antigen presenting cells of non-T cells, Mean” value ([1]; injected right flank tumor) was 2.5% and the “Frequency of Ly-6C+ antigen presenting cells of non-T cells, Mean” value ([1]; uninjected left flank tumor) was 7.8%. The “TNFα plasma level, Mean” value (TNFα; 1 h post-treatment) was 830.84 pg/mL, the “TNFα plasma level, Mean” value (TNFα; 3 h post-treatment) was 136.25 pg/mL and the “TNFα plasma level, Mean” value (TNFα; 6 h post-treatment) was 35.49 pg/mL. For the same substance, the “TNFα plasma level, Mean” value (TNFα; 10 h post-treatment) was 43.32 pg/mL, the “TNFα plasma level, Mean” value (TNFα; 24 h post-treatment) was 9.74 pg/mL and the “Frequency of IA-IE (MHCII)+ antigen presenting cells of Ly-6C+ antigen presenting cells, Mean” value ([2]; injected right flank tumor) was 69.63%. For the same substance, the “Frequency of IA-IE (MHCII)+ antigen presenting cells of Ly-6C+ antigen presenting cells, Mean” value ([2]; uninjected left flank tumor) was 35.05%, the “Ccl4 Mean (2^ΔΔCT)” value (Ccl4) was 1.31 and the “Ccl4 Fold change (4/13i)” value (Ccl4; ratio of 4 to 13i) was 1.74. The “Ifna4 Mean (2^ΔΔCT)” value (Ifna4) was 2.97, the “Ifna4 Fold change (4/13i)” value (Ifna4; ratio of 4 to 13i) was 20.48 and the “AUCPred-∞” value [3] was 65.4 ng·h/mL. The Cmax [3] was 23.1 ng/mL, the “t1/2 (biphasic), first value” [3] was 1.5 h and the “t1/2 (biphasic), second value” [3] was 10 h. For the same substance, the “Frequency of CD8+ T cells of CD3+ T cells, Mean” value (CD8+ T cells; injected right flank tumor) was 29.23%, the “Frequency of CD8+ T cells of CD3+ T cells, Mean” value (CD8+ T cells; uninjected left flank tumor) was 29% and the “IFNγ plasma level, Mean” value (IFNγ; 1 h post-treatment) was 4.04 pg/mL. The “IFNγ plasma level, Mean” value (IFNγ; 3 h post-treatment) was 15.49†, ‡ pg/mL, the “IFNγ plasma level, Mean” value (IFNγ; 6 h post-treatment) was 40.72†, ‡ pg/mL and the “IFNγ plasma level, Mean” value (IFNγ; 10 h post-treatment) was 28.19†, ‡ pg/mL. The “IFNγ plasma level, Mean” value (IFNγ; 24 h post-treatment) was 2.38 pg/mL, the “Il1b Mean (2^ΔΔCT)” value (Il1b) was 3.71† and the “Il1b Fold change (4/13i)” value (Il1b; ratio of 4 to 13i) was 7.92. The “Cxcl1 Mean (2^ΔΔCT)” value (Cxcl1) was 7.41, the “Cxcl1 Fold change (4/13i)” value (Cxcl1; ratio of 4 to 13i) was 11.54 and the “Il10 Mean (2^ΔΔCT)” value (Il10) was 2.77†. The “Il10 Fold change (4/13i)” value (Il10; ratio of 4 to 13i) was 2.29, the “CCL2/MCP-1 plasma level, Mean” value (CCL2/MCP-1; 1 h post-treatment) was 357.83 pg/mL and the “CCL2/MCP-1 plasma level, Mean” value (CCL2/MCP-1; 3 h post-treatment) was 4230.35†, ‡ pg/mL. For the same substance, the “CCL2/MCP-1 plasma level, Mean” value (CCL2/MCP-1; 6 h post-treatment) was 1039.17†, ‡ pg/mL, the “CCL2/MCP-1 plasma level, Mean” value (CCL2/MCP-1; 10 h post-treatment) was 847.07† pg/mL and the “CCL2/MCP-1 plasma level, Mean” value (CCL2/MCP-1; 24 h post-treatment) was 92.58 pg/mL. For the same substance, the “Frequency of Ly-6C+ T cells of CD8+ T cells, Mean” value (Ly-6C+ CD8+ T cells; injected right flank tumor) was 53.7%, the “Frequency of Ly-6C+ T cells of CD8+ T cells, Mean” value (Ly-6C+ CD8+ T cells; uninjected left flank tumor) was 48% and the “Tnf Mean (2^ΔΔCT)” value (Tnf) was 4.64. For the same substance, the “Tnf Fold change (4/13i)” value (Tnf; ratio of 4 to 13i) was 4.45, the “Absolute tumor volume, Mean” value (CT26 tumor cells; day 0 post-treatment) was 88.82 mm^3 and the “Absolute tumor volume, Mean” value (CT26 tumor cells; day 2 post-treatment) was 108.44 mm^3. The “Absolute tumor volume, Mean” value (CT26 tumor cells; day 4 post-treatment) was 128.42 mm^3, the “Absolute tumor volume, Mean” value (CT26 tumor cells; day 7 post-treatment) was 316.07 mm^3 and the “Absolute tumor volume, Mean” value (CT26 tumor cells; day 9 post-treatment) was 549.72 mm^3. The “Absolute tumor volume, Mean” value (CT26 tumor cells; day 11 post-treatment) was 957.90 mm^3, the “Absolute tumor volume, Mean” value (CT26 tumor cells; day 14 post-treatment) was 1220.96 mm^3 and the “Frequency of CD4+ T cells of CD3+ T cells, Mean” value (CD4+ T cells; injected right flank tumor) was 69.1%. The “Frequency of CD4+ T cells of CD3+ T cells, Mean” value (CD4+ T cells; uninjected left flank tumor) was 69.25%, the “IL-6 plasma level, Mean” value (IL-6; 1 h post-treatment) was 3618.87†, ‡ pg/mL and the “IL-6 plasma level, Mean” value (IL-6; 3 h post-treatment) was 1739.75†, ‡ pg/mL. The “IL-6 plasma level, Mean” value (IL-6; 6 h post-treatment) was 88.59 pg/mL, the “IL-6 plasma level, Mean” value (IL-6; 10 h post-treatment) was 154.51 pg/mL and the “IL-6 plasma level, Mean” value (IL-6; 24 h post-treatment) was 44.71 pg/mL.
